The results in this text go back to patent US7754866B2 (Arena Pharmaceuticals, Inc., priority 1997, dated 2010).

A word on the IC50: it is the point on the concentration scale where inhibition reaches its midpoint.

Several values for one entry are separate records, joined by “and”; a condition that tells them apart may be missing. Identical values can stand only once. Like-named read-outs stand apart in the source and are kept apart here.

Test [1] addresses T1, human mutated 5HT2A receptor, AP-3 (Homo sapiens, UniProt P28223, T25N).
T1 construct: Inositol Phosphate Accumulation AP-3 IC50 Value (nM); other: several concentrations; IP3 % of Control; other: one concentration of 10 μM, triplicate; control without test compound
Description: Inositol phosphate accumulation assay, AP-3.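 For all read-outs here: transfected 293 cells prelabeled with 3H-inositol, exposed to compound 120 min at 37 °C with LiCl and pargyline, inositol trisphosphates isolated by anion exchange and counted by scintillation.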 Format: cell-based. To be noted: for remaining activity at 10 µM: read-out: IP3 % of Control.

The target of test [2] is T2, wild type human 5HT2A receptor (Homo sapiens, UniProt P28223).
T2 construct: expressed in transfected cells; host or cells: COS-7 cells, pCMV vector
Description: Competitive binding assay, [3H]LSD, WT 5HT2A. The settings on record: for difference in selectivity preference (IC50 values) for the 5HT2A receptor compared with the 5HT2C receptor: 5HT2A versus 5HT2C.

The mark [3] stands for this setting: several concentrations, read-out: IP3 AP-3 IC50.
[4] abbreviates: competitive binding using LSD, read-out: WT 5HT2A LSD IC50.
The mark [5] stands for this setting: one concentration of 10 μM, triplicate, control without test compound.

T1 sequence (P28223 whole entry T25N, looked up): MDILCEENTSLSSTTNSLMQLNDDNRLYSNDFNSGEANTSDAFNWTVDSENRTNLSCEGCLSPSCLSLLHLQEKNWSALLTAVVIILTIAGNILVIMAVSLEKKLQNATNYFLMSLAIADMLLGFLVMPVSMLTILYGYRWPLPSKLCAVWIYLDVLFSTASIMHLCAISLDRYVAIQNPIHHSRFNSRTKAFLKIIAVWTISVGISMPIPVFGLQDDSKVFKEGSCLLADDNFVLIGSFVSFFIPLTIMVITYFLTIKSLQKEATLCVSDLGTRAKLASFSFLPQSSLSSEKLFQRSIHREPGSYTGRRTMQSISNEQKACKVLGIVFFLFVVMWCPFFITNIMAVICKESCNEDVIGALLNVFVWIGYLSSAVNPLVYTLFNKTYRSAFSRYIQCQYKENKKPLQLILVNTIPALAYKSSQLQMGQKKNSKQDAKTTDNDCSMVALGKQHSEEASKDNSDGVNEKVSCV
T2 sequence (P28223 whole entry T25N/H452Y): as the sequence (P28223 whole entry T25N, looked up) above, with H452Y counted along it

In the case of `Cn1cc(Br)c(-c2cccc(NC(=O)Nc3ccc(OC(F)(F)F)cc3)c2)n1` [Compound 103487, N-[3-(4-bromo-1-methylpyrazol-3-yl)phenyl][{(4-trifluoromethoxy)phenyl}amino]carboxamide], the 50% inhibitory concentration (IC50) in test [1] (read-out: Inositol Phosphate Accumulation AP-3 IC50 Value) is 52 nM and 90 nM; in test [2] (1 nM [3H]LSD, COS7 membranes, read-out: Competitive Binding WT 5HT2A ([3H]LSD) IC50 Value), 46 nM.

For `CSc1ccc(NC(=O)Nc2cccc(-c3nn(C)cc3Br)c2)cc1` [Compound 116079, N-[3-(4-bromo-1-methylpyrazol-3-yl)phenyl][(4-methylthiophenyl)amino]carboxamide], the remaining activity at 10 µM in test [1] amounted to 16%. Besides, the values for the IC50 in test [1] (setting [3]) and in test [2] (setting [4]) were 17 nM and 4 nM, respectively.

For `Cn1cc(Br)c(-c2cccc(NC(=O)Nc3ccc(Cl)cc3)c2)n1` [Compound 116081, N-[3-(4-bromo-1-methylpyrazol-3-yl)phenyl][(4-chlorophenyl)amino]carboxamide], the remaining activity at 10 µM in test [1] was determined as 10%. Further, the IC50 in test [1] (setting [3]) was determined as 3.2 nM; in test [2] (setting [4]), 11 nM. The “difference in selectivity preference (IC50 values) for the 5HT2A receptor compared with the 5HT2C receptor” value in test [2] is given as 100 fold. For `Cn1cc(Br)c(-c2cccc(NC(=O)Nc3ccc(F)cc3)c2)n1` [Compound 116082, {[3-(4-bromo-1-methylpyrazol-3-yl)phenyl]-amino}-N-(4-fluorophenyl)carboxamide], in test [1], the remaining activity at 10 µM is 11%. In test [2], the “difference in selectivity preference (IC50 values) for the 5HT2A receptor compared with the 5HT2C receptor” value is recorded as 100 fold. In addition, the IC50 in test [2] (setting [4]) stood at 7 nM.

For `Cn1cc(Br)c(-c2cccc(NC(=O)Nc3ccccc3OC(F)(F)F)c2)n1` [Compound 116087, {[3-(4-bromo-1-methylpyrazol-3-yl)phenyl]-amino}-N-[2-(trifluoromethoxy)phenyl]carboxamide], in test [1] (setting [5]), the remaining activity at 10 µM is 11%. In addition, the IC50 in test [2] (setting [4]) was determined as 200 nM. In the same order, the values of `Cn1cc(Br)c(-c2cccc(NC(=O)Nc3ccccc3[N+](=O)[O-])c2)n1` [Compound 116089, {[3-(4-bromo-1-methylpyrazol-3-yl)phenyl]-amino}-N-(2-nitrophenyl)carboxamide] are 27% and 238 nM.

For `COc1ccc(NC(=O)Nc2cccc(-c3nn(C)cc3Br)c2)cc1` [Compound 116091, {[3-(4-bromo-1-methylpyrazol-3-yl)phenyl]-amino}-N-(4-methoxyphenyl)carboxamide], the remaining activity at 10 µM in test [1] was determined as 12%. Besides, the IC50 in test [2] (setting [4]) came to 19 nM. For the molecule `Cc1ccccc1NC(=O)Nc1cccc(-c2nn(C)cc2Br)c1` [Compound 116092, {[3-(4-bromo-1-methylpyrazol-3-yl)phenyl]amino}-N-(2-methylphenyl)carboxamide], the remaining activity at 10 µM in test [1] (setting [5]) is 32%. Besides, in test [2] (setting [4]), the IC50 amounted to 131 nM. For the molecule `Cn1cc(Br)c(-c2cccc(NC(=O)Nc3ccc(C(F)(F)F)cc3)c2)n1` [Compound 116097, {[3-(4-bromo-1-methylpyrazol-3-yl)phenyl]-amino}-N-[4-(trifluoromethyl)phenyl]carboxamide], the remaining activity at 10 µM in test [1] is 11%. Besides, the IC50 in test [2] (setting [4]) was found to be 65 nM.

Consider `Cn1cc(Br)c(-c2cccc(NC(=O)Nc3cccc(Cl)c3)c2)n1` [Compound 116105, {[3-(4-bromo-1-methylpyrazol-3-yl)phenyl]-amino}-N-(3-chlorophenyl)carboxamide], for which the remaining activity at 10 µM in test [1] was determined as 11%. Moreover, the half-maximal inhibitory concentration (IC50) in test [2] (setting [4]) is 39 nM. Regarding `Cn1cc(Br)c(-c2cccc(NC(=O)Nc3ccccc3Cl)c2)n1` [Compound 116108, {[3-(4-bromo-1-methylpyrazol-3-yl)phenyl]-amino}-N-[2-chlorophenyl)carboxamide], the remaining activity at 10 µM in test [1] (setting [5]) was found to be 6%. For the same molecule, in test [2] (setting [4]), the 50% inhibitory concentration (IC50) worked out at 249 nM.

Regarding `CC(C)c1ccc(NC(=O)Nc2cccc(-c3nn(C)cc3Br)c2)cc1` [Compound 116110, {[3-(4-bromo-1-methylpyrazol-3-yl)phenyl]amino}-N-[4-(methylethyl)phenyl]carboxamide], the “IP3 % of Control” value in test [1] (setting [5]) is reported as 7%. The IC50 in test [2] (setting [4]) was 338 nM. As to `COc1cccc(NC(=O)Nc2cccc(-c3nn(C)cc3Br)c2)c1` [Compound 116111, {[3-(4-bromo-1-methylpyrazol-3-yl)phenyl]-amino}-N-(3-methoxyphenyl)carboxamide], in test [1] (setting [5]), the remaining activity at 10 µM was determined as 7%. For the same molecule, the IC50 in test [2] (setting [4]) came to 106 nM. Turning to `Cc1cccc(NC(=O)Nc2cccc(-c3nn(C)cc3Br)c2)c1` [Compound 116112, [{3-(4-bromo-1-methylpyrazol-3-yl)phenyl}-amino]-N-(3-methylphenyl)carboxamide], in test [1], the remaining activity at 10 µM was found to be 14%. Further, in test [2] (setting [4]), the IC50 worked out at 57 nM.

As to `CN(C(=O)Nc1cccc(-c2nn(C)cc2Br)c1)c1ccc(OC(F)(F)F)cc1` [Compound 116113, [{3-(4-bromo-1-methylpyrazol-3-yl)phenyl}-amino]-N-methyl-N-[4-(trifluoromethoxy)phenyl]carboxamide], the results for the IC50 in test [1] (setting [3]) and in test [2] (setting [4]) were 193 nM and 2 nM, respectively. With `Cn1cc(Br)c(-c2cccc(NC(=O)Nc3ccc(C(C)(C)C)cc3)c2)n1` [Compound 116119, N-[4-(tert-butyl)phenyl]{[3-(4-bromo-1-methylpyrazol-3-yl)phenyl]amino}carboxamide], the remaining activity at 10 µM in test [1] (setting [5]) stood at 17%. In test [2] (setting [4]), the IC50 amounted to 476 nM. The corresponding values for `CN(C)c1ccc(NC(=O)Nc2cccc(-c3nn(C)cc3Br)c2)cc1` [Compound 116122, N-[4-(dimethylamino)phenyl]{[3-(4-bromo-1-methylpyrazol-3-yl)phenyl]amino}carboxamide] are 9% and 309 nM. For the molecule `Cn1cc(Br)c(-c2cccc(NC(=O)Cc3ccc(OC(F)(F)F)cc3)c2)n1` [Compound 116137, N-[3-(4-bromo-1-methylpyrazol-3-yl)phenyl]-2-[4-(trifluoromethoxy)-phenyl]acetamide], the IC50 in test [2] (setting [4]) stood at 106 nM. On to `Cc1c(Cl)cc(NC(=O)Nc2cccc(-c3nn(C)cc3Br)c2)cc1Cl` [Compound 116138, N-(3,5-dichloro-4-methylphenyl){[3-(4-bromo-1-methylpyrazol-3-yl)phenyl]amino}carboxamide], for which the remaining activity at 10 µM in test [1] (setting [5]) amounted to 23%. In addition, in test [2] (setting [4]), the IC50 was 122 nM. For `Cn1cc(Br)c(-c2cccc(NC(=O)Nc3ccc(SC(F)(F)F)cc3)c2)n1` [Compound 116139, {[3-(4-bromo-1-methylpyrazol-3-yl)phenyl]-amino}-N-[4-(trifluoromethylthio)phenyl]carboxamide], the remaining activity at 10 µM in test [1] came out at 12%. Besides, the IC50 in test [2] (setting [4]) stood at 56 nM.

With `Cn1cc(Br)c(-c2cccc(NC(=O)NC3CCCCC3)c2)n1` [Compound 116141, N-[3-(4-bromo-1-methylpyrazol-3-yl)phenyl]-[cyclohexylamino]carboxamide], the IC50 stood at 114 nM in test [1] (setting [3]) and 81 nM in test [2] (setting [4]). The corresponding values for `Cn1cc(Br)c(-c2cccc(NC(=O)NCc3ccccc3)c2)n1` [Compound 116143, N-[3-(4-bromo-1-methylpyrazol-3-yl)phenyl]-[phenylmethylamino]carboxamide] are 120 nM and 47 nM. Take `Cn1cc(Br)c(-c2cccc(NC(=O)Nc3ccccc3F)c2)n1` [Compound 116144, {[3-(4-bromo-1-methylpyrazol-3-yl)phenyl]-amino}-N-(2-fluorophenyl)carboxamide]: the remaining activity at 10 µM in test [1] is 12%. The IC50 in test [2] (setting [4]) came out at 37 nM.

With `Cn1cc(Br)c(-c2cccc(NC(=O)Nc3ccccc3C(N)=O)c2)n1` [Compound 116145, 2-({[3-(4-bromo-1-methylpyrazol-3-yl)phenyl]-amino}carbonylamino)benzamide], the remaining activity at 10 µM in test [1] (setting [5]) amounted to 31%. Further, in test [2] (setting [4]), the 50% inhibitory concentration (IC50) was found to be 7470 nM. Take `Cn1cc(Br)c(-c2cccc(NC(=O)Nc3ccc(C#N)cc3)c2)n1` [Compound 116147, {[3-(4-bromo-1-methylpyrazol-3-yl)phenyl]-amino}-N-(4-cyanophenyl)carboxamide]: the remaining activity at 10 µM in test [1] was determined as 12%. In test [2] (setting [4]), the IC50 was 2 nM. Regarding `Cn1cc(Br)c(-c2cccc(NC(=O)Nc3ccccc3C#N)c2)n1` [Compound 116148, {[3-(4-bromo-1-methylpyrazol-3-yl)phenyl]-amino}-N-(2-cyanophenyl)carboxamide], the remaining activity at 10 µM in test [1] (setting [5]) was determined as 30%. Also, the IC50 in test [2] (setting [4]) came out at 348 nM. On to `Cn1cc(Br)c(-c2cccc(NC(=O)Cc3cccc(F)c3)c2)n1` [Compound 116174, N-[3-(4-bromo-1-methylpyrazol-3-yl)phenyl]-2-(3-fluorophenyl)acetamide], for which the values for the IC50 in test [1] (setting [3]) and in test [2] (setting [4]) were 153 nM and 318 nM, respectively.

Consider `COc1ccc(CNC(=O)Nc2cccc(-c3nn(C)cc3Br)c2)cc1OC` [Compound 116183, N-[3-(4-bromo-1-methylpyrazol-3-yl)phenyl]-[{(3,4-dimethoxyphenyl)methyl}amino-]carboxamide], for which the IC50 in test [2] (setting [4]) was 1010 nM.

For the molecule `COc1cc(CNC(=O)Nc2cccc(-c3nn(C)cc3Br)c2)cc(OC)c1OC` [Compound 116184, N-[3-(4-bromo-1-methylpyrazol-3-yl)phenyl]-[{(3,4,5-trimethoxyphenyl)methyl}amino]-carboxamide], in test [2] (setting [4]), the IC50 stood at 2960 nM. `Cc1ccccc1CNC(=O)Nc1cccc(-c2nn(C)cc2Br)c1` [Compound 116185, N-[3-(4-bromo-1-methylpyrazol-3-yl)phenyl][{(2-methylphenyl)methyl}amino]carboxamide]: the IC50 in test [2] (setting [4]) was 769 nM. With `COc1ccc(CNC(=O)Nc2cccc(-c3nn(C)cc3Br)c2)cc1` [Compound 116189, N-[3-(4-bromo-1-methylpyrazol-3-yl)phenyl][{(4-methoxyphenyl)methyl}amino]carboxamide], the IC50 in test [2] (setting [4]) is 102 nM.
